# Laboratory results taken from patent US11780845B2 (Relay Therapeutics, Inc., priority 2019, dated 2023).
# Tested on: SNU-16
# Test: Cell SNU-16 assay
# Type: cell-based
# Conditions: Homo sapiens, SNU-16, SNU-16 cells
row,IC50,SMILES
1,≤ 100 nM,C=CC(=O)Nc1ccc(-c2c(-c3cc4ccccc4[nH]3)c3c(N)ncnc3n2C)cc1 [Example 1138]
2,100 to 250 nM,C=C(C)C(=O)Nc1ccc(-c2c(C3=CC[C@H](C(=O)N4CCC[C@H]4C)CC3)c3c(N)ncnc3n2C)c(C)c1 [Example 1481]
3,≤ 100 nM,C#Cc1ncc(-c2c(-c3ccc(Oc4nccc(C)n4)c(F)c3)c3c(C)ncnc3n2C)c(C)c1OC [Example 1397]
4,1000 to 100000 nM,"C=C(C)C(=O)Nc1cc(C)c(-c2c(C3=CC[C@@H](C(=O)N4CCCC4)CC3)c3c(N)ncnc3n2C)c(C)c1 (single isomer, unassigned) [Example 1484]"
5,250 to 1000 nM,C=C(C)C(=O)Nc1cnn(C)c1-c1c(-c2ccc(Oc3nccc(C)n3)cc2)c2c(N)ncnc2n1C [Example 1072]
6,250 to 1000 nM,C=C(C)C(=O)Nc1ccc(-c2c(-c3cnc(-c4cccc(C)c4)s3)c3c(N)ncnc3n2C)cc1 [Example 1423]
7,≤ 100 nM,C#Cc1ncc2cc(-c3c(-c4ccc(Oc5nccc(C)n5)c(F)c4)c4c(N)ncnc4n3C)ccc2n1 [Example 1385]
8,≤ 100 nM,"C=C(C)C(=O)Nc1ccc(-c2c(C3=CC[C@]4(CC3)Cc3ccccc3C4=O)c3c(N)ncnc3n2C)cc1 (single isomer, unassigned) [Example 988]"
9,1000 to 100000 nM,C=C(C)C(=O)Nc1ccc(-c2c(C3=CC[C@@H](C(=O)N4CCCC4)OC3)c3c(N)ncnc3n2C)cc1 [Example 1015]
10,250 to 1000 nM,C#Cc1cc(C)c(-c2c(-c3ccc(C(=O)NC4CCC4)c(OC)c3)c3c(N)ncnc3n2C)cn1 [Example 1143]
11,250 to 1000 nM,C=C(C)C(=O)Nc1ccc(-c2c(-c3ccc4cc[nH]c4c3)c3c(N)ncnc3n2C)cc1 [Example 1297]
12,≤ 100 nM,C=C(C)C(=O)Nc1ccc(-c2c(-c3ccc(C(=O)N[C@H]4C[C@H](F)C4)c(COC)c3)c3c(N)ncnc3n2C)cc1 [Example 966]
13,1000 to 100000 nM,C=C(C)C(=O)Nc1ccc(-c2c(C3=CCCCO3)c3c(N)ncnc3n2C)cc1 [Example 1269]
14,≤ 100 nM,C#Cc1cc(C)c(-c2c(C3=CC[C@H](C(=O)N4CCCC4)CC3)c3c(N)ncnc3n2C)cn1 [Example 1111]
15,1000 to 100000 nM,Cc1ccnc(Oc2ccc(-c3c(-c4ccc(NC(=O)C5=CCOC5)cc4)n(C)c4ncnc(N)c34)cc2)n1 [Example 904]
16,≤ 100 nM,C=C(C)C(=O)Nc1ccc(-c2c(C3=CCN(Cc4ccccc4)CC3)c3c(N)ncnc3n2C)cc1 [Example 1189]
17,100 to 250 nM,C=C(C)C(=O)Nc1ccc(-c2c(C3=CC[C@H](C(=O)N4CCCC[C@H]4C)CC3)c3c(N)ncnc3n2C)cc1 [Example 994]
18,≤ 100 nM,C#Cc1nc(C)c(-c2c(-c3ccc(Oc4nccc(C)n4)cc3)c3c(N)ncnc3n2C)cc1F [Example 1171]
19,≤ 100 nM,C=C(C)C(=O)Nc1ccc(-c2c(-c3ccc(-c4ccnn4C)nc3)c3c(N)ncnc3n2C)cc1 [Example 1155]
20,1000 to 100000 nM,"C=C(C)C(=O)Nc1ccc(-c2c(-c3ccc4c(c3)OC[C@@H]4c3cccc(C)n3)c3c(N)ncnc3n2C)cc1 (single isomer, unassigned) [Example 919]"
21,1000 to 100000 nM,C=C(C)C(=O)Nc1ccc(-c2c(-c3ccc(N)nc3)c3c(N)ncnc3n2C)cc1 [Example 1295]
22,≤ 100 nM,"C#Cc1ccc(-c2c(C3=CC[C@@H](C(=O)N4CCC[C@@H]4C#C)CC3)c3c(N)ncnc3n2C)c(C)n1 (single isomer, unassigned) [Example 1229]"
23,≤ 100 nM,C#Cc1ncc(-c2c(-c3ccc(C(=O)NCC(C)C)cc3)c3c(N)ncnc3n2C)c(C)c1F [Example 1306]
24,≤ 100 nM,Cc1ccnc(Oc2ccc(-c3c(-c4ccc(N5C(=O)C=CC5=O)cc4)n(C)c4ncnc(N)c34)cc2)n1 [Example 1084]
25,100 to 250 nM,"C=C1CCN(c2ccc(-c3c(C4=CC[C@H](C(=O)N5CCCC5)CC4)c4c(N)ncnc4n3C)cc2)C1=O (single isomer, unassigned) [Example 1137]"
26,1000 to 100000 nM,C=C(C)C(=O)Nc1ccc(-c2c(C3=CC[C@@]4(CC3)Cc3ccc(OC)nc3C4=O)c3c(N)ncnc3n2C)cc1 [Example 1338]

row,SMILES,IC50
1,Cn1c(-c2ccc(NC(=O)C3CN3)cc2)c(-c2ccc(C(=O)N3CCCC3)cc2)c2c(N)ncnc21 (centres unmarked) [Example 901],1000 to 100000 nM

# Same assay, conditions: SNU-16 cells
row,IC50,SMILES
1,≤ 100 nM,C=C(C)C(=O)Nc1cc(-c2c(-c3ccc(C(=O)N4CCCC4)cc3)c3c(N)ncnc3n2C)n(C)n1 [Example 866]

# Biological target: FGFR2 (Homo sapiens (Human), UniProt P21802)
# Test: Biochemical FGFR2 Caliper assay
# Conditions: not given
# FGFR2, sequence (P21802 22-821): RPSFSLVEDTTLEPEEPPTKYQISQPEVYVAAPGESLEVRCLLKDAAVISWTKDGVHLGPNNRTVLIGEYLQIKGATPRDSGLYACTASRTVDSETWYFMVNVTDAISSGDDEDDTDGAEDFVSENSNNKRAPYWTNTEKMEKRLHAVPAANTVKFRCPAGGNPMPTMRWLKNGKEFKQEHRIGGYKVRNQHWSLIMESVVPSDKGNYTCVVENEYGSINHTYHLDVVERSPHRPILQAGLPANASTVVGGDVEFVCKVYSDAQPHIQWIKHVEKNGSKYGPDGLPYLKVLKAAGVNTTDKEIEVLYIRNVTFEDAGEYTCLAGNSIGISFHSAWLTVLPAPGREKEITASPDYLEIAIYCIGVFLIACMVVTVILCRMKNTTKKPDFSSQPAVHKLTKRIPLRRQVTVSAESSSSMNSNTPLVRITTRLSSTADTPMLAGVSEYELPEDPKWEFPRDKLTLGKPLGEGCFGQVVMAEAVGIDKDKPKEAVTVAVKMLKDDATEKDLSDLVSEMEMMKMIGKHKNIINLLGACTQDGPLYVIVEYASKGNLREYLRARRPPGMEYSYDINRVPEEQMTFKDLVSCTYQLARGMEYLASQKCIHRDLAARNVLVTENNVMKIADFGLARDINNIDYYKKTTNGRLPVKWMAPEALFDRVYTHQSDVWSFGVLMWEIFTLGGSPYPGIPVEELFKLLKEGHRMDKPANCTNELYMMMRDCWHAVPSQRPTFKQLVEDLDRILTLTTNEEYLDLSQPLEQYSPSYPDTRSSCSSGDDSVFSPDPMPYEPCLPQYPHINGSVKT
row,IC50,SMILES
1,< 100 nM,C=C(C)C(=O)Nc1cc(-c2c(-c3ccc(C(=O)N4CCCC4)cc3)c3c(N)ncnc3n2C)n(C)n1 [Example 866]
2,< 100 nM,C=CC(=O)Nc1ccc(-c2c(-c3cc4ccccc4[nH]3)c3c(N)ncnc3n2C)cc1 [Example 1138]
3,250 to 1000 nM,C=C(C)C(=O)Nc1ccc(-c2c(C3=CC[C@H](C(=O)N4CCC[C@H]4C)CC3)c3c(N)ncnc3n2C)c(C)c1 [Example 1481]
4,250 to 1000 nM,C#Cc1ncc(-c2c(-c3ccc(Oc4nccc(C)n4)c(F)c3)c3c(C)ncnc3n2C)c(C)c1OC [Example 1397]
5,1000 to 100000 nM,"C=C(C)C(=O)Nc1cc(C)c(-c2c(C3=CC[C@@H](C(=O)N4CCCC4)CC3)c3c(N)ncnc3n2C)c(C)c1 (single isomer, unassigned) [Example 1484]"
6,250 to 1000 nM,C=C(C)C(=O)Nc1cnn(C)c1-c1c(-c2ccc(Oc3nccc(C)n3)cc2)c2c(N)ncnc2n1C [Example 1072]
7,250 to 1000 nM,C=C(C)C(=O)Nc1ccc(-c2c(-c3cnc(-c4cccc(C)c4)s3)c3c(N)ncnc3n2C)cc1 [Example 1423]
8,< 100 nM,C#Cc1ncc2cc(-c3c(-c4ccc(Oc5nccc(C)n5)c(F)c4)c4c(N)ncnc4n3C)ccc2n1 [Example 1385]
9,250 to 1000 nM,"C=C(C)C(=O)Nc1ccc(-c2c(C3=CC[C@]4(CC3)Cc3ccccc3C4=O)c3c(N)ncnc3n2C)cc1 (single isomer, unassigned) [Example 988]"
10,1000 to 100000 nM,C=C(C)C(=O)Nc1ccc(-c2c(C3=CC[C@@H](C(=O)N4CCCC4)OC3)c3c(N)ncnc3n2C)cc1 [Example 1015]
11,1000 to 100000 nM,C#Cc1cc(C)c(-c2c(-c3ccc(C(=O)NC4CCC4)c(OC)c3)c3c(N)ncnc3n2C)cn1 [Example 1143]
12,250 to 1000 nM,C=C(C)C(=O)Nc1ccc(-c2c(-c3ccc4cc[nH]c4c3)c3c(N)ncnc3n2C)cc1 [Example 1297]
13,< 100 nM,C=C(C)C(=O)Nc1ccc(-c2c(-c3ccc(C(=O)N[C@H]4C[C@H](F)C4)c(COC)c3)c3c(N)ncnc3n2C)cc1 [Example 966]
14,1000 to 100000 nM,C=C(C)C(=O)Nc1ccc(-c2c(C3=CCCCO3)c3c(N)ncnc3n2C)cc1 [Example 1269]
15,< 100 nM,C#Cc1cc(C)c(-c2c(C3=CC[C@H](C(=O)N4CCCC4)CC3)c3c(N)ncnc3n2C)cn1 [Example 1111]
16,1000 to 100000 nM,Cc1ccnc(Oc2ccc(-c3c(-c4ccc(NC(=O)C5=CCOC5)cc4)n(C)c4ncnc(N)c34)cc2)n1 [Example 904]
17,< 100 nM,C=C(C)C(=O)Nc1ccc(-c2c(C3=CCN(Cc4ccccc4)CC3)c3c(N)ncnc3n2C)cc1 [Example 1189]
18,1000 to 100000 nM,C=C(C)C(=O)Nc1ccc(-c2c(C3=CC[C@H](C(=O)N4CCCC[C@H]4C)CC3)c3c(N)ncnc3n2C)cc1 [Example 994]
19,< 100 nM,C#Cc1nc(C)c(-c2c(-c3ccc(Oc4nccc(C)n4)cc3)c3c(N)ncnc3n2C)cc1F [Example 1171]
20,< 100 nM,C=C(C)C(=O)Nc1ccc(-c2c(-c3ccc(-c4ccnn4C)nc3)c3c(N)ncnc3n2C)cc1 [Example 1155]
21,100 to 250 nM,"C=C(C)C(=O)Nc1ccc(-c2c(-c3ccc4c(c3)OC[C@@H]4c3cccc(C)n3)c3c(N)ncnc3n2C)cc1 (single isomer, unassigned) [Example 919]"
22,1000 to 100000 nM,C=C(C)C(=O)Nc1ccc(-c2c(-c3ccc(N)nc3)c3c(N)ncnc3n2C)cc1 [Example 1295]
23,< 100 nM,"C#Cc1ccc(-c2c(C3=CC[C@@H](C(=O)N4CCC[C@@H]4C#C)CC3)c3c(N)ncnc3n2C)c(C)n1 (single isomer, unassigned) [Example 1229]"
24,< 100 nM,C#Cc1ncc(-c2c(-c3ccc(C(=O)NCC(C)C)cc3)c3c(N)ncnc3n2C)c(C)c1F [Example 1306]
25,< 100 nM,Cc1ccnc(Oc2ccc(-c3c(-c4ccc(N5C(=O)C=CC5=O)cc4)n(C)c4ncnc(N)c34)cc2)n1 [Example 1084]
26,250 to 1000 nM,"C=C1CCN(c2ccc(-c3c(C4=CC[C@H](C(=O)N5CCCC5)CC4)c4c(N)ncnc4n3C)cc2)C1=O (single isomer, unassigned) [Example 1137]"
27,1000 to 100000 nM,C=C(C)C(=O)Nc1ccc(-c2c(C3=CC[C@@]4(CC3)Cc3ccc(OC)nc3C4=O)c3c(N)ncnc3n2C)cc1 [Example 1338]

row,SMILES,IC50
1,Cn1c(-c2ccc(NC(=O)C3CN3)cc2)c(-c2ccc(C(=O)N3CCCC3)cc2)c2c(N)ncnc21 (centres unmarked) [Example 901],1000 to 100000 nM
